What was measured:
[1] = tested on: [125I]neurotensin binding sites (NT receptors); test: [125I]neurotensin binding assay, PAG and hypothalamus homogenates of treated rats; format: in vivo, rat
Protocol: Binding assays were done with homogenates from rat PAG and hypothalamus tissue as described elsewhere (Kanba et al., J. Neurochem. 46:946-952 (1986) and Al-Rodhan N.R.F., Brain Res. 557:227-235 (1991)). Tissue concentrations were 1 mg wet weight per tube in a total volume of 100 μl with a final buffer concentration of 0.05 M Tris-HCl (pH 7.4) containing the following compounds to inhibit degradation of peptides: 0.02% (w/v) bovine serum albumin, 2.8 mg/ml bacitracin, 1.0 mM EDTA, 0.5 mM o-phenanthroline, 10 μg/ml pepstatin, 10 μg/ml leupeptin, 10 μg/ml aprotinin, 5 mM benzamidine, 2 mM phenylmethylsulfonylfluoride, and 50 μM bestatin. For each experiment, 80 μl of a thawed membranal suspension was incubated for 25 minutes at 20° C. in a solution containing 0.2 nM [^125I]neurotensin with a final volume of 100 μl. After incubation, the mixture was rapidly filtered to separate bound from unbound radioligand. Each filter was then dried for 2 minutes, placed on a solid scintillation sheet (Wallac Oy, Turku Finland; cat. no. 1205-441), and measured for radioactivity in a beta-plate scintillation counter (Wallac Oy; model # 1205 beta plate). Non-specific binding of [^125I]neurotensin, defined as the binding in the presence of 1 μM neurotensin (−20% of total binding), was subtracted from the total binding to calculate the specific binding.
The LIGAND program was used to analyze all binding data (Munson P. J. and Rodbard D., Analyt. Biochem. 107:220-239 (1980)). Specifically, this program was used to calculate equilibrium dissociation constants and maximal number of binding sites.
The analysis of PAG tissue in experiment 1 was as follows. Four rats were cannulated and treated on days -4, -2, and 0 with either ACSF only or NTR1-PNA as described above. One day after the final treatment, the PAG region of the rat brain was removed, homogenized, and used in the binding assays. Rats treated with ACSF only were used to derive control values for the percent control disintegrations per minute (dpm) and percent control receptors (fmol/mg wet weight). Thus, the values for ACSF only treated rats were set to 100 percent. One day after the final treatment, the PAG region from NTR1-PNA oligomer treated rats expressed 60-70 percent fewer [^125I]neurotensin binding sites than ACSF only treated rats.
In experiment 2, five rats were untreated and used as controls, two recovered rats were treated with ACSF only, and four rats were treated with NTR1-PNA oligomers. The two rats treated with ACSF only are designated as recovered since both rats previously received a single dose of PNA oligomers intraperitoneally (one received NTR1-PNA oligomers and the other MU1R-PNA oligomers). These rats, however, were not used until five days after the intraperitoneal (i.p.) PNA oligomer treatment. Thus, at the time the binding analysis was performed, these rats were completely normal as determined by the behavioral NT-mediated responses and the MOR-mediated response described above. Again, one day after the final treatment, the PAG region from NTR1-PNA oligomer treated rats expressed fewer [^125I]neurotensin binding sites than both the recovered ACSF only treated rats and untreated control rats. In this experiment, the reduction in binding sites was about 20-30 percent of those expressed by the untreated rats.
NT binding sites from the hypothalamus region of the rat brain were also analyzed. In this experiment, the hypothalamus region of rat brain was removed from the same rats used in experiment 2 to analyze the PAG region (five untreated control rats, two recovered ACSF only treated rats, and four NTR1-PNA oligomer treated rats). The untreated rats were used to derive control values. One day after the final treatment, the hypothalamus region from NTR1-PNA oligomer treated rats expressed 40-50 percent fewer [^125I]neurotensin binding sites than untreated control rats. […]

NTR1 mRNA = test: Quantitative RT-PCR of NTR1 mRNA relative to GAPDH; format: in vivo; conditions: treated intracranially, 5 μg
Protocol: (§1) Messenger RNA (mRNA) levels for NTR1, MU1R, and GAPDH were measured in control and PNA-treated animals. Briefly, total RNA was isolated from approximately 20 mg of tissue using the S.N.A.P. total RNA Isolation Kit (Invitrogen, Carlsbad, Calif.). Quantitative RT-PCR was performed on treated and control animals using GAPDH as an internal standard and PCR fragments of the human NTR and of a GAPDH deletion mutant as exogenous standards. First strand cDNA was synthesized from approximately 500 ng of total RNA using the cDNA Cycle Kit (Invitrogen, Carlsbad, Calif.). PCR was performed on a GeneAmp PCR System 9600 (Perkin Elmer, Norwalk, Conn.) using end-labeled primer and TAq DNA Polymerase (Gibco-BRL, Gaithersburg, Md.). Products were separated on a 5% acrylamide gel containing 7 M urea, and detected using a Storm860 Phosphoimager (Molecular Dynamics, Sunnyvale, Calif.). Data were analyzed using ImageQuant Software (Molecular Dynamics, Sunnyvale Calif.). To control for any diurnal mRNA level fluctuations that may occur, the PNA injection time was controlled such that the tissue harvest time was identical in each animal group.

MU1R mRNA = test: Quantitative RT-PCR of MU1R mRNA relative to GAPDH; format: in vivo; conditions: treated intracranially, 5 μg
Protocol: as §1

[2] = tested on: NTR1 cDNA synthesis from total brain RNA; test: In vitro reverse transcription assay; format: biochemical, rat; conditions: 1 μg total brain RNA incubated with 600 ng PNA
Protocol: An in vitro reverse transcription assay was performed-as follows. Total RNA was isolated from 20 mg of tissue using the RNeasy Kit (Qiagen, Chatsworth, Calif.). After isolation, total RNA (lug) was incubated with the PNA oligomers (600 ng) at 40° C. for 40 minutes. Exogenous cRNA standards were added, and cDNA was synthesized using the cDNA Cycle Kit and gene-specific primers for NTR1 and GAPDH (Invitrogen, Carlsbad, Calif.). The exogenous cRNA standards were synthesized from dsDNA templates using the Megashort-Script Kit (Ambion, Austin, Tex.). The dsDNA templates for exogenous cRNA standards for the NTR1- and GAPDH-specific cDNA reactions were constructed using the PCR MIMIC Construction Kit (Clontech) and composite primers. […] After using the cDNA Cycle Kit, quantitative PCR was performed on each sample. […] Products were detected using a Storm860 Phosphoimager (Molecular Dynamics, Sunnyvale, Calif.) and data were analyzed using Image Quant Software (Molecular Dynamics, Sunnyvale, Calif.).
Using this in vitro reverse transcription assay, 1 μg of total RNA isolated from the brain of an untreated rat was incubated with 600 ng of the AS-NTR1-PNA or mismatch-AS-NTR1PNA oligomer and NTR1 cDNA production assessed. […]

[3] = PAG tissue, Experiment 1, control ACSF only, PAG injections days -4, -2, 0
[4] = PAG tissue, Experiment 2, untreated control

NTR1-PNA: 12-mer antisense PNA oligomer to rat NTR1 coding region, 5′-CATTGCTCAAAC-3′ (SEQ ID NO: 1) (all peptide nucleic acid (PNA))
% Control receptors ([1]; Hypothalamus tissue, untreated control, PNA injected into PAG): 51 % Control
% Control dpm's [1, 3]: 41 % Control
% Control receptors [1, 3]: 32 % Control
% Control dpm's [1, 4]: 81 % Control
% Control receptors [1, 4]: 67 % Control
fewer [125I]neurotensin binding sites than ACSF only treated rats ([1]; PAG, experiment 1, one day after final treatment): 60-70%
reduction in [125I]neurotensin binding sites vs untreated rats ([1]; PAG, experiment 2, one day after final treatment): 20-30%
effect of excess PNA added to brain homogenates on the binding assay ([1]; excess PNA added in vitro to brain homogenates): did not change these results
fewer [125I]neurotensin binding sites than untreated control rats ([1]; hypothalamus, one day after final treatment): 40-50%
change in NTR1/GAPDH ratio of mRNA over time (NTR1 mRNA): no significant change
change in MU1R/GAPDH ratio of mRNA (MU1R mRNA): no significant change
reduction in NTR1 cDNA synthesis [2]: 65%
